From PMC11035632, “Discovery of gefitinib-1,2,3-triazole derivatives against lung cancer via inducing apoptosis and inhibiting the colony formation” (Scientific Reports, 2024)

How the values were obtained:
A549 cells = test: CCK-8 assay for cell proliferation and cytotoxicity, A549; type: cell-based; settings: Homo sapiens, CCK-8, 48 h
Description: A549 cells were cultured in a humidified incubator at 37 °C with 5% CO2 in Ham’s F-12 K (PM150910, Procell) supplemented with 10% FBS and 1% Penicillin Streptomycin.
(§1) Three types of lung cells were seeded into 96-well plate at a density of 5 × 10^3 cells per well at logarithmic growth phase and cultured in 37 °C. […] After that, cell viability was determined according to the instruction of the CCK-8 assay. Next, 10 μL of CCK-8 solution was added to each well of the plate and incubate the plate for 1–4 h in the incubator. The absorbance was measured at 450 nm using a microplate reader (Bio-Tek). The percentage of viable cells was measured using the following formula where three independent experiments were performed: [(A450 sample − A450blank)/(A450 control − A450blank)] × 100%.

NCI-H1437 cells = test: CCK-8 assay for cell proliferation and cytotoxicity, NCI-H1437; type: cell-based; settings: Homo sapiens, CCK-8, 48 h, read-out: IC50 1437
Description: as §1

L02 cells = test: Cytotoxicity / survival rate in normal hepatocytes L02; type: cell-based; settings: for Survival rate %, 48 h: L02 cells
H1299 cells [1] = test: Flow cytometry detection of apoptosis (Annexin V-EGFP/PI); type: cell-based, human; settings: 48 h
Description: H1299 cells were treated with different concentrations of 7a and 7j for 48 h. The cells were stained with Annexin-V and PI, and the proportion of apoptotic cells was detected using flow cytometry.
H1299 cells were seeded in a 6-well plate at a density of 1 × 10^5 cells/well and incubated for 24 h. On the following day, the medium was replaced with fresh medium containing 7a or 7j (2, 4 and 8 μmol/L) and cells were incubated for an additional 48 h. Cell apoptosis was detected using Annexin V-EGFP/PI apoptosis detection Kit by flow cytometry. Subsequently, 5 µl of […] Annexin V and 10 µl of PI was added to the cell suspension, gently vortexed, and incubated at room temperature in the dark for 20 min, then single-cell suspension was prepared followed by flow cytometry (BD Accuri™ C6 Plus).

H1299 cells [2] = test: DAPI staining for cell apoptosis; type: cell-based, human; settings: H1299, 2, 4 and 8 μmol/L, 48 h
Description: In order to further verify the apoptotic activity induced by 7a and 7j in lung cancer cells, H1299 cells were treated with different concentrations of compounds 7a and 7j for 48 h, followed by DAPI staining. […] As the drug concentration increased, nuclear staining intensified, and even nuclear condensation and fragmentation phenomena were observed.
H1299 (1.5 × 10^4 ~ 2 × 10^4 /well) cells were seeded in 24-well plates for 24 h, and then treated with 7a or 7j at the concentrations of 2,4 and 8 μmol/L for 48 h., the cells were fixed for 30 min at room temperature in 4% paraformaldehyde and washed 3 times in PBS. Finally, every well was stained with DAPI (10 µg/mL, C0065, Solarbio) at room temperature for 30 min, and washed at least three times in PBS. The fluorescence microscope was used to observe the morphological changes of cell nuclei.

H1299 cells [3] = test: Wound healing assay; type: cell-based, human; settings: 24 h
Description: H1299 cells were seeded in a 6-well plate, When the cell confluency reached 95%, a wound line was scratched using a 200 µl pipette tip, and then washed three times, fresh medium containing 7a or 7j (2, 4 and 8 μmol/L) was added, and the plate was incubated at 37 °C with 5% CO2. All the images were captured at 0 h and 24 h under an inverted microscope, and the quantification of scratches was analysed using Image J.

H1299 cells [4] = test: Transwell migration assay; type: cell-based, human; settings: H1299, 2, 4 and 8 μmol/L, 24 h, vs normal control, p < 0.01
Description: Transwell chamber migration assay is another important method to assess cell migration ability. Tumor cells are seeded in the chamber, and the number of tumor cells that pass through the membrane is counted to evaluate the migration ability of tumor cells.
Transwell assay was used to determine the migration ability of H1299 cells. Cells were starved in serum-free RPMI 1640 medium for 24 h, then detached and resuspended in serum-free RPMI 1640 medium. 5 × 10^5 cells/mL were inoculated into the upper chamber of a 24-well Transwell plate (Corning Inc., United States), with a volume of 100 µl per well. Then, 100 µL serum-free medium containing 7a or 7j (2, 4 and 8 μmol/L) was added to the upper chamber and the lower chamber was filled with 700 µL medium containing 20% FBS. After incubation for 24 h, H1299 cells on the upper membrane of the transwell were wiped off. The migrated cells were treated with 4% paraformaldehyde for 20 min, stained with 0.1% crystal violet for 20 min and washed three times with PBS. The number of H1299 cells that migrated to the underside of the membrane was counted under the inverted fluorescence microscope. Three randomly selected areas from each transwell were photographed and calculated using Image J.

[5] = test system: Bcl-2, caspase9, Cleaved-Caspase3, Cleaved-PARP, MMP9 in H1299 cells; test: Western blot of apoptosis- and migration-related proteins; type: cell-based, human; settings: H1299, 4, 8 or 16 μM, 48 h
Text: We conducted an in-depth investigation into the mechanism of apoptosis induced by compounds 7a and 7j. The Bcl-2 protein family is located upstream of the apoptosis signaling pathway. Bcl-2 proteins play an anti-apoptotic role by inhibiting the release of cytochrome C (cyt-c) from mitochondria. Previous literature reports that many anticancer drugs induce apoptosis by downregulating Bcl-2 expression. During apoptosis, the expression of Bcl-2 is inhibited, cyt-c is released, and it binds with the apoptotic protease activation factor to form the apoptosome. This triggers a cascade reaction of Caspase family proteins, with apoptosome promoting the activation of Caspase9. Activated Caspase9 then activates Caspase3, forming the Caspase3 cleavage body, which further activates downstream PARP protein, ultimately promoting cell apoptosis. […] After treating H1299 cells with different concentrations of compounds for 48 h, cell proteins were extracted, and western blot was used to detect the expression changes of apoptosis-related proteins.
Firstly, H1299 cells were treated with different concentrations concentrations of 7a and 7j at 4, 8 and 16 μmol/L for 48 h, cells were harvested using RIPA lysate (R0010, Solarbio) and centrifuged at 12,000 rpm for 15 min at 4 °C, and then the concentration of total protein was measured and taken from the supernatant. Protein was separated by 12% SDS–polyacrylamide gel electrophoresis and transferred to nitrocellulose filter membrane. after blocking in 5% milk for 2 h, the membranes were incubated with specific primary antibody at 4 °C overnight. Next day, NC membranes were incubated for 1 h at room temperature with appropriate secondary antibodies, and then Protein bands was visualizing by chemiluminescence detection (ECL kit, Genview).

**Q.** Which IC50 (A549 cells) does the source give for `COc1cc2ncnc(Nc3cccc(-c4cn(Cc5cc(F)ccc5Br)nn4)c3)c2cc1OCCCN1CCOCC1` [Compound 7a] here?
**A.** 3.16 ± 0.11 µM

**Q.** What about the IC50 (NCI-H1437 cells) of the same compound?
**A.** 1.83 ± 0.13 µM

**Q.** What about the IC50 (L02 cells; Homo sapiens, normal hepatocytes L02) of the same compound?
**A.** 18.9 ± 1.03 µM

**Q.** What about the “Survival rate %, 48 h” value (L02 cells; 2 μM) of the same compound?
**A.** 95.37 ± 2.98%

**Q.** What about the “Survival rate %, 48 h” value (L02 cells; 4 μM) of the same compound?
**A.** 71.97 ± 2.33%

**Q.** What about the “Survival rate %, 48 h” value (L02 cells; 8 μM) of the same compound?
**A.** 66.89 ± 1.52%

**Q.** And the “Survival rate %, 48 h” value (L02 cells; 16 μM)?
**A.** 63.25 ± 1.25%

**Q.** What about the “Survival rate %, 48 h” value (L02 cells; 32 μM) of the same compound?
**A.** 32.43 ± 0.95%

**Q.** And the “total apoptotic cell proportion” value (H1299 cells [1]; H1299, 2 μmol/L)?
**A.** 19.03 ± 2.10%

**Q.** What about the “total apoptotic cell proportion” value (H1299 cells [1]; H1299, 4 μmol/L) of the same compound?
**A.** 28.73 ± 1.12%

**Q.** What about the “total apoptotic cell proportion” value (H1299 cells [1]; H1299, 8 μmol/L) of the same compound?
**A.** 50.1 ± 2.91%

**Q.** And the “apoptotic morphology by DAPI staining” value (H1299 cells [2])?
**A.** exhibited typical apoptotic features

**Q.** And the migration closure rate (H1299 cells [3]; H1299, 2 μmol/L)?
**A.** 65.16 ± 7.88%

**Q.** What about the migration closure rate (H1299 cells [3]; H1299, 4 μmol/L) of the same compound?
**A.** 50.12 ± 2.99%

**Q.** What about the migration closure rate (H1299 cells [3]; H1299, 8 μmol/L) of the same compound?
**A.** 23.54 ± 3.65%

**Q.** And the “number of cells passing through the membrane to the lower surface of the chamber” value (H1299 cells [4])?
**A.** significantly decreased

**Q.** And the “Bcl-2 protein expression level” value [5]?
**A.** decrease

**Q.** And the “Cleaved-Caspase3 protein expression level” value [5]?
**A.** increased

**Q.** What about the “Cleaved-PARP protein expression level” value [5] of the same compound?
**A.** increased

**Q.** And the MMP9 protein expression [5]?
**A.** downregulated

**Q.** And the “caspase9 protein expression level” value [5]?
**A.** decrease
